Measurements as given in patent US20250354188A1, “METHOD FOR SYNTHESIZING CELOSIANIN II, METHOD FOR SYNTHESIZING BETAXANTHIN, AMYLOID-ß POLYMERIZATION INHIBITOR OR THERAPEUTIC OR PROPHYLACTIC AGENT FOR ALZHEIMER'S DISEASE, AMYLOID PEPTIDE AGGREGATION INHIBITOR, AND HIV-1 PROTEASE ACTIVITY INHIBITOR” (priority 2019, published 2025).

Experiments:
β-Amyloid (1-40) = molecular target: T1, β-Amyloid (1-40) (Homo sapiens, UniProt P05067); assay: Amyloid-β polymerization inhibitory activity in Thioflavin T (ThT) assay; format: biochemical; conditions: sample 50 μM final; ThT fluorescence for 4 hours
T1 construct: SensoLyte Thioflavin T β-Amyloid (1-40) Aggregation Kit (ANASPEC); purchased ANASPEC
T1 sequence (P05067 672-711 limits assumed): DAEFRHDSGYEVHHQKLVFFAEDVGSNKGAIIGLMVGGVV
Description: ThT assay involved evaluating polymerization using SensoLyte Thioflavin T β-Amyloid (1-40) Aggregation Kit (ANASPEC) in accordance with an accompanying protocol.
As an apparatus used for measurement, Varioskan LUX (Thermo Fisher Scientific) was used, and fluorescence derived from the polymerization of amyloid-β was measured for 4 hours at intervals of 5 minutes. A sample was stirred for 15 seconds before each measurement and subjected to the measurement. An excitation wavelength of 440 nm and a detection wavelength of 484 nm were used.
The sample used for the ThT assay was prepared to have a final concentration of 50 μM before being used for the experiment. Tannic acid (Ono, K., Hasegawa, K., Naiki, H. & Yamada, M. (2004) Anti-amyloidogenic activity of tannic acid and its activity to destabilize Alzheimer's beta-amyloid fibrils in vitro. Biochim Biophys Acta 1690, 193-202.) was used as a control of an inhibitor.
The sample used for the ThT assay was prepared to have a final concentration of 50 μM before being used for the experiment. An extracted sample from the BY-2 cells having an empty vector introduced therein (VC) and water (PC) in place of a sample were used as controls. In addition, betanin and curcumin were used as positive controls. Curcumin is a plant-derived substance reported to have amyloid-β polymerization inhibitory activity (Yang F, Lim GP, Begum AN, et al. Curcumin inhibits formation of amyloid betaoligomers and fibrils, binds plaques, and reduces amyloid in vivo. J BiolChem. 2005; 280(7): 5892-5901. doi:10.1074/jbc.M404751200).

[1] = Stability of betalain pigment aqueous solutions at 37° C.; format: physicochemical; conditions: for red color after treatment: 4 days at 37° C.
Description: An aqueous solution of each of celosianin II, amaranthin, and betanin was evaluated for its stability at 37° C.
For each of betanin, amaranthin, and celosianin II, a 1 mM aqueous solution was prepared, and left to stand still in an incubator at 37° C. Absorbances at 536 nm on days 0, 1, 2, 3, and 4 were measured, and for the resultant values, relative amounts with respect to the absorbance on day 0 were calculated.

[2] = tested on: Transgenic nematodes (CL2006) expressing human amyloid-β 1-42, Aβ42; assay: Paralysis test using transgenic nematodes expressing amyloid peptide; format: in vivo, Caenorhabditis elegans; conditions: fed with 50 μM betanin, compared to group fed with dextrin (control)
Description: In a transgenic nematode expressing an amyloid peptide, aggregates of the amyloid peptide are formed in the body along with its growth period, and the nematode is paralyzed. In view of this, whether feeding with betanin changed a paralysis ratio was evaluated.
Nematodes were grown using NGM plates (nematode growth medium), and grown using Escherichia coli (OP50 strain) as food under the condition of 15° C. unless otherwise indicated.
Transgenic nematodes (CL2006) expressing an amyloid peptide (human amyloid-β 1-42, Aβ42) were obtained from the Caenorhabditis Genetics Center (CGC), USA. The CL2006 expresses Aβ42 in the cells of the body wall muscle of the nematode, and then aggregation of the amyloid peptide occurs in the muscle. […]
The individuals grown to adults through the synchronized growth were transferred to NGM plates containing various concentrations (2 μM, 10 μM, and 50 μM) of food having mixed therein dextrin or betanin, and were grown. After the nematodes had been transferred, the nematodes were each evaluated for paralysis at constant intervals. […]
Paralysis was evaluated on the basis of the behavior of the nematode after the nose of the nematode had been lightly tapped with a platinum wire.

[3] = molecular target: T2, human amyloid-β 1-40, Aβ40 (Homo sapiens, UniProt P05067); assay: Observation of amyloid peptide aggregation using transmission electron microscope; format: biochemical; conditions: 25 μM Aβ40 + 50 μM sample, 5 days; for effect on polymerization and amorphous aggregation of amyloid fibrils (conclusion from TEM): 37° C.; for aggregation of the amyloid peptide observed by TEM: PBS pH 7.4, 37° C., dark
T2 construct: A lyophilized amyloid peptide (human amyloid-β 1-40, Aβ40) was purchased from Peptide Institute, Inc; purchased Peptide Institute, Inc
T2 sequence (P05067 672-711 limits assumed): as above
Description: A lyophilized amyloid peptide (human amyloid-β 1-40, Aβ40) was purchased from Peptide Institute, Inc., dissolved as a stock solution at a concentration of 1 mM using dimethyl sulfoxide, and stored at-20° C. until use.
As a betaxanthin, the betaxanthin extracted from the betaxanthin-producing BY2 cells (FIG. 10) was used.
With regard to reaction conditions, Aβ40 and a sample (betanin, amaranthin, celosianin II, ferulic acid, or the betaxanthin) were prepared with PBS (pH 7.4) so as to have a final concentration of 25 μM and a final concentration of 50 μM, respectively. As a control, distilled water was used in place of the sample. The prepared sample was left to stand still in a dark place at 37° C. for 5 days.
The sample after the reaction was stained on a grid mesh for a transmission electron microscope by adding about 2 μL of a 2% uranyl acetate solution thereto. After the solution had dried, the aggregation of the amyloid peptide was observed using a transmission electron microscope (Hitachi 7650 TEM).

[4] = molecular target: T3, recombinant HIV-1 protease (Human immunodeficiency virus type 1 group M subtype B, UniProt P04585); assay: HIV-1 protease inhibitory activity (residual substrate peptide by HPLC); format: biochemical
T3 construct: A recombinant HIV-1 protease (ab84117) from Abcam was used as an HIV-1 protease; purchased Abcam ab84117
Description: A recombinant HIV-1 protease (ab84117) from Abcam was used as an HIV-1 protease, and an HIV-1 protease substrate (Lys-Ala-Arg-Val-Nle-p-nitro-Phe-Glu-Ala-Nle amide) from Sigma-Aldrich was used as a substrate peptide for the HIV-1 protease. HIV-1 protease activity evaluation was performed with reference to a previously reported method (Boso, G., Orvell, C. and Somia, N.V. (2015) The nature of the N-terminal amino acid residue of HIV-1 RNase H is critical for the stability of reverse transcriptase in viral particles. J. Virol. 89, 1286-1297.). Amaranthin, betanin, or celosianin II was added to 16 pmol of the HIV-1 protease and 4 nmol of the HIV-1 protease substrate, a buffer (25 mM NaCl, 25 mM Na2HPO4, 1 mM dithiothreitol, pH 4.7) was added so that the amount of a reaction liquid was 30 μl, and a reaction was performed at 25° C. for 2 hours. With regard to the addition amount of amaranthin, betanin, or celosianin II, amaranthin, betanin, and celosianin II were each added at the ratio of a 100-fold amount with respect to the amount of the HIV-1 protease. For celosianin II, the ratios of 25-and 50-fold amounts were further evaluated. An HIV-1 inhibitor saquinavir was used as a positive control.
After the reaction, the reaction liquid was measured for the amount of the residual substrate peptide through use of HPLC, and a residual ratio with respect to the substrate before the reaction was calculated. For the HPLC, LC-20AD from Shimadzu was utilized, and a Shim-pack GWS C18 column (5 μm; 200 mm×4.6 mm i.d.; Shimadzu GLC) was used as an analytical column. For an analytical solvent system, 0.05% TFA in water was used as solvent A and 0.05% TFA in acetonitrile was used as solvent B. An HPLC program was set to a linear gradient from 0% of solvent B at 0 minutes to 50% of solvent B at 50 minutes, and the HPLC was performed at a flow rate of 0.5 mL/min and 25° C. Analysis was performed with an analytical wavelength being set to 260 nm allowing the HIV-1 protease substrate peptide to be detected.

Row | Structure (SMILES) | amyloid-β polymerization inhibitory activity (β-Amyloid (1-40)) | red color after treatment ([1]; 1 mM aqueous solution) | paralysis ratio [2] | effect on polymerization and amorphous aggregation of amyloid fibrils (conclusion from TEM) [3] | aggregation of the amyloid peptide observed by TEM [3] | residual amounts of the betalain pigments (absorbance at 536 nm relative to day 0) ([1]; 1 mM aqueous solution, 37° C., days 0 to 4) | stability of aqueous solution ([1]; 37° C., compared to amaranthin and betanin) | dependence of HIV-1 protease inhibitory activity on amount ([4]; 25-, 50- and 100-fold amounts with respect to HIV-1 protease) | HIV-1 protease activity inhibitory effect relative to amaranthin ([4]; 25-fold celosianin II vs 100-fold amaranthin) [times] | HIV-1 protease inhibitory activity ([4]; celosianin II added in 25-fold amount with respect to HIV-1 protease, 25° C., 2 hours, pH 4.7)
1 | O=C(O)C1=C/C(=C/C=[N+]2/c3cc(O)c(OC4OC(CO)[C@@H](O)C(O)C4O)cc3CC2C(=O)[O-])CC(C(=O)O)N1 (stereo in doubt) [betanin] | comparable to or higher than that of the existing inhibitor (tannic acid) | disappeared | significant amelioration (reduction) in paralysis ratio | inhibiting both of the polymerization and amorphous aggregation of amyloid fibrils | only short amyloid fibrils were observed |  |  |  |  | 
2 | O=C(O)C1=C/C(=C/C=[N+]2c3cc(O)c(O[C@@H]4O[C@H](CO)[C@@H](O)[C@H](O)[C@H]4O[C@@H]4O[C@H](C(=O)O)[C@@H](O)[C@H](O)[C@H]4O)cc3C[C@H]2C(=O)[O-])C[C@@H](C(=O)O)N1 [amaranthin] | possessed inhibitory activity, though its effect was low as compared to celosianin II and betanin | disappeared |  | inhibiting both of the polymerization and amorphous aggregation of amyloid fibrils | only short amyloid fibrils were observed |  |  |  |  | 
3 | COc1cc(/C=C/C(=O)O[C@H]2[C@H](O[C@H]3[C@H](Oc4cc5c(cc4O)[N+](=C/C=C4/C=C(C(=O)O)N[C@H](C(=O)O)C4)[C@H](C(=O)[O-])C5)O[C@H](CO)[C@@H](O)[C@@H]3O)O[C@H](C(=O)O)[C@@H](O)[C@@H]2O)ccc1O [celosianin II] | comparable to or higher than that of the existing inhibitor (tannic acid) | still exhibited a red color |  | inhibiting both of the polymerization and amorphous aggregation of amyloid fibrils | only short amyloid fibrils were observed | more abundant than amaranthin and betanin | stable | amount-dependent | 4 | comparable to that in the case where a 100-fold amount of amaranthin was added
4 | COc1cc(/C=C/C(=O)O)ccc1O [ferulic acid] | weaker than those of celosianin II, the betanin pigment, and amaranthin |  |  | inhibiting both of the polymerization and amorphous aggregation of amyloid fibrils | only short amyloid fibrils were observed |  |  |  |  | 
